# Numbered stars: 1 amine (or outer) side, 2 acyl side, 3 side chain; on linkers, the order of the positions; unused ones are H or OH. Square brackets hold non-standard residues; d marks the D form. Ends that are not written are not given here. Peptide text beside a SMILES is read from it. * marks the point of attachment. Phe(4-NH2) = Nc1ccc(C[C@H](N)C(=O)O)cc1; Arg(Me) = CNC(=N)NCCC[C@H](N)C(=O)O; Tryptamide = c1ccc2c(CCN*)c[nH]c2c1; d3Pal = N[C@H](Cc1cccnc1)C(=O)O; d4Pal = N[C@H](Cc1ccncc1)C(=O)O; Cha = N[C@@H](CC1CCCCC1)C(=O)O; Boc = CC(C)(C)OC(=O)*; CO = O=C([*:1])[*:2]; azaGly = NNC(=O)O
# Biological target: hOT7T175 (Homo sapiens, UniProt Q969F8, L364H)
# Sequence (Q969F8 whole entry L364H): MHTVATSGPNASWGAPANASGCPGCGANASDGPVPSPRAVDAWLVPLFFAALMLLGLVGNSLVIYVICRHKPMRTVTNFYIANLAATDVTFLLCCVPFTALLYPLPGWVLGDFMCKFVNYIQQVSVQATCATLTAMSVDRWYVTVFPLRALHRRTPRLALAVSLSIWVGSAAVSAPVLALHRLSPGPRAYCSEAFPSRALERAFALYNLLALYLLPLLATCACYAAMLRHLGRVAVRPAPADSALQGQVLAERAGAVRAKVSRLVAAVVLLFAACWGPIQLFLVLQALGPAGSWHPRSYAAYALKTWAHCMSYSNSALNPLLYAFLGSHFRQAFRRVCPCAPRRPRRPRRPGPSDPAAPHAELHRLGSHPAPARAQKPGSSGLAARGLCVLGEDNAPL
# Assay: Intracellular Ca ion level-increasing activity using FLIPR in hOT7T175/CHO
# Type: cell-based
# Design: expressed in transfected cells; host or cells: CHO/dhfr- cells, obtained from ATCC
# Conditions: relative, Metastin (1-54) = 1
# Description: Assay for Intracellular Ca Ion Level-Increasing Activity Using Flipr
# In accordance with the method described in JPA 2000-312590, the intracellular Ca ion level-increasing activity was measured using FLIPR.
# The stable expression cell line hOT7T175 was acquired by transduction of expression plasmid pAK-rOT175 for animal cells into CHO/dhff cells, using CellPhect Transfection Kit (Amersham Pharmacia Biotech, Inc.). First, 240 μL of Buffer A (attached to CellPhect Transfection Kit) was added to 9.6 μg of plasmid DNA dissolved in 240 μl of distilled water, followed by stirring. After settling the mixture for 10 minutes, 480 μL of Buffer B (attached to CellPhect Transfection Kit) was added to the mixture, which was vigorously stirred to form DNA-containing liposomes. Then, 4×10^5 CHO/dhff cells (obtained from ATCC) were inoculated on a 60 mm Petri dish. […] After culturing the cells at 37° C. for 6 hours in 5% carbon dioxide gas, the cells were washed twice with serum-free Ham's F-12 medium and 3 ml of 15% glycerol was added to the cells in the Petri dish to treat for 2 minutes. The cells were again washed twice with serum-free Ham's F-12 medium followed by incubation in Ham's F-12 medium supplemented with 10% fetal bovine serum at 37° C. for 15 hours in 5% carbon dioxide gas. The cells were dispersed by trypsin treatment and recovered from the Petri dish. The recovered cells were inoculated on a 6-well plate in 1.25×10^4 cells/well and incubation was initiated at 37° C. in Dulbecco's modified Eagle medium (DMEM) medium (Nissui Seiyaku Co., Ltd.) containing 10% dialyzed fetal bovine serum (JRH BIOSCIENCES, Inc.) under 5% carbon dioxide gas. […] The medium was exchanged on Days 1 and 2 to remove the cells died.
# The intracellular Ca ion level-increasing activity of the synthetic peptide in hOT7T175/CHO was determined using FLIPR (Molecular Devices, Inc.).
# hOT7T175/CHO was subcultured in DMEM supplemented with 10% dialyzed fetal bovine serum (hereinafter abbreviated as dFBS) and provided for the experiment (hereinafter abbreviated as 10% dFBS/DMEM). The hOT7T175/CHO was suspended in 10% dFBS-DMEM in 15×10^4 cells/ml. The suspension was inoculated on a 96-well plate for FLIPR (Black Plate Clear Bottom, Coster, Inc.) at 200 μL each (3.0×10^4 cells/200 μL/well), followed by incubation at 37° C. overnight in a 5% CO2 incubator (hereinafter simply referred to as the cell plate). Then, 21 ml of HANKS/HBSS (9.8 g of HANKS, 0.35 g of sodium hydrogencarbonate, 20 ml of 1M HEPES; after adjusting the pH to 7.4 with 1N sodium hydroxide, the mixture was sterilized by filtration), 210 μl of 250 mM Probenecid and […] of fetal bovine serum (FBS) were mixed (HANKS/HBSS-Probenecid-FBS).
# Furthermore, 2 vials of Fluo3-AM (50 μug/vial) were dissolved in 21 μL of dimethylsulfoxide and 21 μL of 20% Pluronic acid. The resulting solution was added to and mixed with 10 ml of HANKS/HBSS-Probenecid-FBS described above. After the culture medium was removed, the mixture was dispensed onto the cell plate in 100 μL each/well, followed by incubation at 37° C. for an hour in a 5% CO2 incubator (pigment loading). The peptide was dissolved in dimethylsulfoxide in 1×10^−3 M. The peptide solution was diluted with HANKS/HBSS containing 2.5 mM Probenecid, 0.2% BSA and 0.1% CHAPS.
row,Compound,Specific Activity (intracellular Ca ion level-increasing activity)
1,D-Tyr-D-Pya(4)-Asn-Ser-Phe-AzaGly-Leu-Arg(Me)-Trp-NH2 [Compound No. 385],10
2,Tyr-Asn-Trp-Asn-Ser-Phe-Gly-Ala-Arg-Phe-NH2 (YNWNSFGARF-NH2) [Compound No. 45],1
3,CNC(=N)NCCC[C@H](NC(=O)[C@H](CC(C)C)NC(=O)CNC(=O)[C@H](Cc1ccccc1)NC(=O)[C@H](CO)NC(=O)[C@H](CC(N)=O)NC(=O)[C@H](Cc1c[nH]c2ccccc12)NC(=O)[C@@H](CC(N)=O)NC(=O)[C@H](N)Cc1ccc(O)cc1)C(=O)N[C@@H](Cc1ccccc1)C(N)=O [Compound No. 230],10
4,CNC(=N)NCCC[C@H](NC(=O)[C@H](CC(C)C)NC(=O)CNC(=O)[C@H](Cc1ccccc1)NC(=O)[C@H](CO)NC(=O)[C@H](CC(N)=O)NC(=O)[C@H](Cc1c[nH]c2ccccc12)NC(=O)[C@@H](NC(=O)[C@H](N)Cc1ccc(O)cc1)[C@@H](C)O)C(=O)N[C@@H](Cc1ccccc1)C(N)=O [Compound No. 215] (H-[dY]TWNSFGL[Arg(Me)]F-NH2; N-terminus assumed),10
5,"CNC(=N)NCCC[C@H](NC(=O)[C@H](CC(C)C)NC(=O)NNC(=O)[C@H](Cc1ccccc1)NC(=O)[C@H](CO)NC(=O)[C@H](CC(N)=O)NC(=O)NCCc1c[nH]c2ccccc12)C(=O)N[C@@H](Cc1ccccc1)C(N)=O [Compound No. 279, 2-(indol-3-yl)ethylcarbamoyl-Asn-Ser-Phe-AzaGly-Leu-Arg(Me)-Phe-NH2] ({Tryptamide-CO}-NSF[azaGly]L[Arg(Me)]F-NH2)",5
6,"CNC(=N)NCCC[C@H](NC(=O)[C@H](CC(C)C)NC(=O)NNC(=O)[C@H](Cc1ccccc1)NC(=O)[C@H](CO)NC(=O)[C@H](CC(N)=O)NC(=O)[C@@H](Cc1ccncc1)NC(=O)[C@H](CC(N)=O)NC(=O)[C@H](N)Cc1ccc(O)cc1)C(=O)N[C@@H](Cc1ccccc1)C(N)=O [Compound No. 302, D-Tyr-Asn-D-Pya(4)-Asn-Ser-Phe-AzaGly-Leu-Arg(Me)-Phe-NH2] (H-[dY]N[d4Pal]NSF[azaGly]L[Arg(Me)]F-NH2)",2
7,Boc-Tyr-Asn-Trp-Phe-Gly-Leu-Arg-Phe-NH2 (Boc-YNWFGLRF-NH2; SMILES CC(C)C[C@H](NC(=O)CNC(=O)[C@H](Cc1ccccc1)NC(=O)[C@H](Cc1c[nH]c2ccccc12)NC(=O)[C@H](CC(N)=O)NC(=O)[C@H](Cc1ccc(O)cc1)NC(=O)OC(C)(C)C)C(=O)N[C@@H](CCCNC(=N)N)C(=O)N[C@@H](Cc1ccccc1)C(N)=O) [Compound No. 87],1
8,CNC(=N)NCCC[C@H](NC(=O)[C@H](CC(C)C)NC(=O)CNC(=O)[C@H](Cc1ccccc1)NC(=O)[C@@H](NC(=O)[C@H](CC(N)=O)NC(=O)[C@H](Cc1c[nH]c2ccccc12)NC(=O)[C@H](CC(N)=O)NC(=O)[C@H](N)Cc1ccc(O)cc1)[C@@H](C)O)C(=O)N[C@@H](Cc1ccccc1)C(N)=O [Compound No. 211] (H-[dY]NWNTFGL[Arg(Me)]F-NH2; N-terminus assumed),10
9,"CNC(=N)NCCC[C@H](NC(=O)[C@H](CC(C)C)NC(=O)NNC(=O)[C@H](Cc1ccccc1)NC(=O)[C@H](CO)NC(=O)[C@H](CC(N)=O)NC(=O)[C@H](Cc1ccc(N)cc1)NC(=O)[C@H](CC(N)=O)NC(=O)[C@H](N)Cc1ccc(O)cc1)C(=O)N[C@@H](Cc1ccccc1)C(N)=O [Compound No. 250, D-Tyr-Asn-Phe(4NH2)-Asn-Ser-Phe-AzaGly-Leu-Arg(Me)-Phe-NH2] (H-[dY]N[Phe(4-NH2)]NSF[azaGly]L[Arg(Me)]F-NH2)",1
10,"CNC(=N)NCCC[C@H](NC(=O)[C@H](CC(C)C)NC(=O)NNC(=O)[C@H](Cc1ccccc1)NC(=O)[C@H](CO)NC(=O)[C@H](CC(N)=O)NC(=O)[C@H](Cc1ccccc1)NC(=O)[C@H](CC(N)=O)NC(=O)[C@H](N)Cc1ccc(O)cc1)C(=O)N[C@@H](Cc1ccccc1)C(N)=O [Compound No. 244, D-Tyr-Asn-Phe-Asn-Ser-Phe-AzaGly-Leu-Arg(Me)-Phe-NH2] (H-[dY]NFNSF[azaGly]L[Arg(Me)]F-NH2; N-terminus assumed)",1
11,CNC(=N)NCCC[C@H](NC(=O)[C@H](CC(C)C)NC(=O)CNC(=O)[C@H](Cc1ccccc1)NC(=O)[C@H](CO)NC(=O)[C@H](CC(N)=O)NC(=O)[C@H](Cc1c[nH]c2ccccc12)NC(=O)[C@H](N)CC(N)=O)C(=O)N[C@@H](Cc1ccccc1)C(N)=O [Compound No. 216] (H-[dN]WNSFGL[Arg(Me)]F-NH2; N-terminus assumed),1
12,CC(C)C[C@H](NC(=O)CNC(=O)[C@H](Cc1ccccc1)NC(=O)[C@H](CO)NC(=O)[C@H](CC(N)=O)NC(=O)[C@H](Cc1c[nH]c2ccccc12)NC(=O)[C@@H](CC(N)=O)NC(=O)[C@@H](N)Cc1ccc(O)cc1)C(=O)N[C@@H](CCCNC(=N)N)C(=O)N[C@@H](Cc1ccccc1)C(N)=O [Compound No. 41],10
13,CNC(=N)NCCC[C@H](NC(=O)[C@H](CC(C)C)NC(=O)CNC(=O)[C@H](Cc1ccccc1)NC(=O)[C@H](CO)NC(=O)[C@H](CC(N)=O)NC(=O)[C@H](Cc1c[nH]c2ccccc12)NC(=O)[C@H](CCC(N)=O)NC(=O)[C@H](N)Cc1ccc(O)cc1)C(=O)N[C@@H](Cc1ccccc1)C(N)=O [Compound No. 214] (H-[dY]QWNSFGL[Arg(Me)]F-NH2),10
14,"CNC(=N)NCCC[C@H](NC(=O)[C@H](CC(C)C)NC(=O)NNC(=O)[C@H](Cc1ccccc1)NC(=O)[C@H](CO)NC(=O)[C@H](CC(N)=O)NC(=O)[C@H](CC1CCCCC1)NC(=O)[C@@H](Cc1ccc(O)cc1)NC(=O)[C@H](N)Cc1cccnc1)C(=O)N[C@@H](Cc1ccccc1)C(N)=O [Compound No. 291, D-Pya(3)-D-Tyr-Cha-Asn-Ser-Phe-AzaGly-Leu-Arg(Me)-Phe-NH2] (H-[d3Pal][dY][Cha]NSF[azaGly]L[Arg(Me)]F-NH2; N-terminus assumed)",2
15,"CNC(=N)NCCC[C@H](NC(=O)[C@H](CC(C)C)NC(=O)NNC(=O)[C@H](Cc1ccccc1)NC(=O)[C@H](CO)NC(=O)[C@H](CC(N)=O)NC(=O)[C@H](Cc1ccccc1)NC(=O)[C@H](N)Cc1ccc(O)cc1)C(=O)N[C@@H](Cc1ccccc1)C(N)=O [Compound No. 254, D-Tyr-Phe-Asn-Ser-Phe-AzaGly-Leu-Arg(Me)-Phe-NH2] (H-[dY]FNSF[azaGly]L[Arg(Me)]F-NH2)",1
16,CNC(=N)NCCC[C@H](NC(=O)[C@H](CC(C)C)NC(=O)CNC(=O)[C@H](Cc1ccccc1)NC(=O)[C@H](CO)NC(=O)[C@H](C)NC(=O)[C@H](Cc1c[nH]c2ccccc12)NC(=O)[C@H](CC(N)=O)NC(=O)[C@H](N)Cc1ccc(O)cc1)C(=O)N[C@@H](Cc1ccccc1)C(N)=O [Compound No. 210] (H-[dY]NWASFGL[Arg(Me)]F-NH2),1
17,"CNC(=N)NCCC[C@H](NC(=O)[C@H](CC(C)C)NC(=O)NNC(=O)[C@H](Cc1ccccc1)NC(=O)[C@@H](NC(=O)[C@H](CC(N)=O)NC(=O)[C@H](Cc1c[nH]c2ccccc12)NC(=O)[C@@H](CC(N)=O)NC(=O)[C@H](N)Cc1ccc(O)cc1)[C@@H](C)O)C(=O)N[C@@H](Cc1ccccc1)C(N)=O [Compound No. 298, D-Tyr-D-Asn-Trp-Asn-Thr-Phe-AzaGly-Leu-Arg(Me)-Phe-NH2] (H-[dY][dN]WNTF[azaGly]L[Arg(Me)]F-NH2)",5

# Reference: patent US8361968B2 (Takeda Pharmaceutical Company Limited, priority 2002, dated 2013)
